Results on 2 compounds are retold here after US20250302762A1, “NANOMATERIAL DELIVERY VEHICLE AND METHOD OF USE THEREOF” (University of Connecticut, priority 2022, published 2025).

Data set [1] is described as follows: Buffering capacity (acid-base titration), proton sponge effect. The format is physicochemical. The following applies: FIG. 4D. The protocol:
JBNP Characterization. The particles and ζ potential of the JBNPs were measured by dynamic light scattering (Zetasizer) and the morphology was observed by transmission electron microscope (TEM). The get retardation assay was conducted at 0.8% low-melting agarose gel followed by electrophoresis. The UV-Vis absorption spectra were recorded with a NanoDrop One. The buffering capacity of JBNPs and polymers, JBNP and cationic polymers at the same 0.08 μmol were titrated by either adding the 2 μL of 10 mM HCl or 10 mM NaOH.

Data set [2] deals with cells. The data set can be described thus: Delivery of small RNAs, mRNAs and albumin via Arg-JBNP. The format is cell-based. The note with it: FIGS. 3A-3E. The protocol:
Multi-functional JBNPs. Multi-functional JBNPs were prepared by mixing a cargo molecule (e.g., RNA, biologically active small molecule, protein) with the multi-functional JBNT at an appropriate molar ratio in nuclease-free water, followed by sonication with a sonicator at 100% amplitude, for 2 min and 30 s, at room temperature. The concentrations of different components are shown as below: c(JBNT)=1 mg/mL; c(siRNA)=5 uM; c(mRNA)=0.05 mg/mL. c(protein)=0.1 mg/mL. The ratios (volume to volume ratio) for each cargo: (4:1 ratio (Arg-JBNT:siRNA), (20:1 ratio Arg-JBNT:mRNA), (3:1 Arg-JBNT: protein).
Arg-JBNP-siRNA were assembled by mixing Arg-JBNT(1 mg/ml) and siRNA-AF488 (5 uM) in nuclease-free water as ratio of volume to volume of 4:1. Arg-JBNP-mRNA were assembled by mixing Arg-JBNT (1 mg/ml) to Cas9mRNA (0.05 mg/ml) as ratio of volume to volume of 20:1. Arg-JBNP-albumin were assembled by mixing Arg-JBNT (1 mg/ml) to albumin (0.1 mg/ml) as ratio of volume to volume, 3:1. Then mixture of Arg-JBNT and cargoes in nuclease-free water are sonicated with sonicator at 100% amplitude for 2 min and 30 sec.

SMILES strings stand for the structures.

As for `CNc1nc2c(c(N)nc(=O)n2CCN[C@@H](Cc2c[nH]cn2)C(=O)O)c(=O)[nH]1` [Histidine-JBNTs], the proton-sponge effect capacity result in data set [1] was “superior proton-sponge effect capacity”. In the case of `CNc1nc2c(c(N)nc(=O)n2CCN[C@@H](CCCNC(=N)N)C(=O)O)c(=O)[nH]1` [ArgJBNTs], the delivery of cargo entry in data set [2] is “successful delivery of small RNAs, mRNAs, and albumin (protein)”.
